{"source": "patent US7514424B2", "about": "“Substituted 4-(4-piperidin-4-yl-piperazin-1-yl)-azepane derivatives and their use as neurokinin antagonists” (Janssen Pharmaceutica N.V., priority 2002, dated 2009)", "test_in_all_cases": "Signal transduction (intracellular Ca++, FLIPR), functional antagonistic activity", "assay_type_in_all_cases": "cell-based", "key": {"h-NK1": {"molecular_target": "h-NK1 (Homo sapiens, UniProt P25103)", "sequence (P25103 whole entry)": "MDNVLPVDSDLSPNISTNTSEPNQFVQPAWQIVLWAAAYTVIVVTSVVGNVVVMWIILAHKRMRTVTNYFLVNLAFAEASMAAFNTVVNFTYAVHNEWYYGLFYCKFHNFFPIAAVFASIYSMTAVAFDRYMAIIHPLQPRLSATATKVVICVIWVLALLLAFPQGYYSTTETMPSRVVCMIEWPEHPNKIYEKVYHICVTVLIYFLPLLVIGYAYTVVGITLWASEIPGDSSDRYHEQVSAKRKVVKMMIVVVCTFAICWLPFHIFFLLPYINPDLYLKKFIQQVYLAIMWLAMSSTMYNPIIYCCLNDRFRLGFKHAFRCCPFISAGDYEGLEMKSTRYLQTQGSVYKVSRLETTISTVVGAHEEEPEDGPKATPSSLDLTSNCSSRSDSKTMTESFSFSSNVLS", "settings": "Ca++ peak, read-out: pIC50 h-NK1 (converted)", "experimental": "(§1) This test evaluates in vitro functional NK1 antagonistic activity. For the measurements of intracellular Ca^++ concentrations the cells were grown on 96-well (black wall/transparent bottom) plates from Costar for 2 days until they reached confluence. The cells were loaded with 2 μM Fluo3 in DMEM containing 0.1% BSA and 2.5 mM probenecid for 1 h at 37° C. They were washed 3× with a Krebs buffer (140 mM NaCl, 1 mM MgCl2×6H2O, 5 mM KCl, 10 mM glucose, 5 mM HEPES; 1.25 mM CaCl2; pH 7.4) containing 2.5 mM probenecid and 0.1% BSA (Ca^++-buffer). The cells were preincubated with a concentration range of antagonists for 20 min at RT and Ca^++-signals after addition of the agonists were measured in a Fluorescence Image Plate\n(§2) Reader (FLIPR from Molecular Devices, Crawley, England). The peak of the Ca^++-transient was considered as the relevant signal and the mean values of corresponding wells were analysed as described below.\n(§3) The sigmoidal dose response curves were analysed by computerised curve-fitting, using the GraphPad Program. The EC50-value of a compound is the effective dose showing 50% of maximal effect. For mean curves the response to the agonist with the highest potency was normalised to 100%. For antagonist responses the IC50-value was calculated using non-linear regression.\n(§4) The last colums indicates—without being limited thereto—for which action the compounds might be most suitable. Of course, since for some neurokinin receptors no data was determined, it is obvious that these compounds might be attributed to another suitable use."}, "h-NK2": {"molecular_target": "T1, h-NK2 (Homo sapiens, UniProt P21452)", "T1 sequence (P21452 1-398)": "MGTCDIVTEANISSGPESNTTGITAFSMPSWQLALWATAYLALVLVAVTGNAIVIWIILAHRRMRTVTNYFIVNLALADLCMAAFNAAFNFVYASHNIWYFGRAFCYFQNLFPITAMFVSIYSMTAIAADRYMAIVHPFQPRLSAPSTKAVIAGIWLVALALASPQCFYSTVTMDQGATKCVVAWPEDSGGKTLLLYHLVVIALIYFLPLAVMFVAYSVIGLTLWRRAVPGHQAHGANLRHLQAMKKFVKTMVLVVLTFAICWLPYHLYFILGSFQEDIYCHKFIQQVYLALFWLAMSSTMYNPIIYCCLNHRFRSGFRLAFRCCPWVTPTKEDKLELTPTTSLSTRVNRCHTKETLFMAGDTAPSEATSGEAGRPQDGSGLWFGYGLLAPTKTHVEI", "settings": "Ca++ peak, read-out: pIC50 h-NK2 (converted)", "experimental": "[Worded in the source for another target; this target is reported under the same test.] as §1, §2, §3, §4"}, "h-NK3": {"molecular_target": "T2, h-NK3 (Homo sapiens, UniProt P29371)", "T2 sequence (P29371 1-465)": "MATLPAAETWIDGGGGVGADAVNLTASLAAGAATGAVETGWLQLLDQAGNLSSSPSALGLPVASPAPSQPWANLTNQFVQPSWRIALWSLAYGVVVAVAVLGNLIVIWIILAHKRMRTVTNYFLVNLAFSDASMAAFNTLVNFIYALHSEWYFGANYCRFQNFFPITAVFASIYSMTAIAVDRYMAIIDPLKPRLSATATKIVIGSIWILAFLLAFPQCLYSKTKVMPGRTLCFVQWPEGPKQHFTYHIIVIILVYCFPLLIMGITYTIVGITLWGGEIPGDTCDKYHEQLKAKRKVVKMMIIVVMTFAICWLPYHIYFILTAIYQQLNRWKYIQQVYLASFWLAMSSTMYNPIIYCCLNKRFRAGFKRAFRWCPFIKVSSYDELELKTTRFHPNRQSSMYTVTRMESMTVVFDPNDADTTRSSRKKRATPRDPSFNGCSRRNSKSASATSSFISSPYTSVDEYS", "settings": "Ca++ peak, read-out: pIC50 h-NK3 (converted)", "experimental": "[Worded in the source for another target; this target is reported under the same test.] as §1, §2, §3, §4"}}}
{"compound": "O=C(c1ccccc1)N1CCCC(N2CCN(C3CCN(C(=O)c4cc(C(F)(F)F)cc(C(F)(F)F)c4)C(Cc4ccccc4)C3)CC2)CC1", "note": "(stereo not shown) [Compound 3]", "values": [{"measurement": "IC50", "setting": "h-NK1", "result": 200, "unit": "nM"}]}
{"compound": "O=C(c1cccc(F)c1)N1CCCC(N2CCN(C3CCN(C(=O)c4cc(C(F)(F)F)cc(C(F)(F)F)c4)C(Cc4ccccc4)C3)CC2)CC1", "note": "(stereo not shown) [Compound 6]", "values": [{"measurement": "IC50", "setting": "h-NK2", "result": 9330, "unit": "nM"}, {"measurement": "IC50", "setting": "h-NK3", "result": 1350, "unit": "nM"}, {"measurement": "IC50", "setting": "h-NK1", "result": 158, "unit": "nM"}]}
{"compound": "Cc1cccc(C(=O)N2CCCC(N3CCN(C4CCN(C(=O)c5cc(C(F)(F)F)cc(C(F)(F)F)c5)C(Cc5ccccc5)C4)CC3)CC2)c1", "note": "(stereo not shown) [Compound 9]", "values": [{"measurement": "IC50", "setting": "h-NK1", "result": 302, "unit": "nM"}]}
{"compound": "O=C(c1ccc(F)c(F)c1)N1CCCC(N2CCN(C3CCN(C(=O)c4cc(C(F)(F)F)cc(C(F)(F)F)c4)C(Cc4ccccc4)C3)CC2)CC1", "note": "(stereo not shown) [Compound 5]", "values": [{"measurement": "IC50", "setting": "h-NK1", "result": 148, "unit": "nM"}]}
{"compound": "CCOC(=O)N1CCCC(N2CCN(C3CCN(C(=O)c4cc(C(F)(F)F)cc(C(F)(F)F)c4)C(Cc4ccccc4)C3)CC2)CC1", "note": "(stereo not shown) [Compound 4]", "values": [{"measurement": "IC50", "setting": "h-NK1", "result": 166, "unit": "nM"}]}
{"compound": "Cc1cc(C(=O)N2CCCC(N3CCN(C4CCN(C(=O)c5cc(C(F)(F)F)cc(C(F)(F)F)c5)C(Cc5ccccc5)C4)CC3)CC2)no1", "note": "(stereo not shown) [Compound 8]", "values": [{"measurement": "IC50", "setting": "h-NK3", "result": 10000, "unit": "nM"}, {"measurement": "IC50", "setting": "h-NK1", "result": 28.2, "unit": "nM"}]}
{"compound": "CC(C)(C)OC(=O)N1CCCC(N2CCN(C3CCN(C(=O)c4cc(C(F)(F)F)cc(C(F)(F)F)c4)C(Cc4ccccc4)C3)CC2)CC1", "note": "(stereo not shown) [Compound 1]", "values": [{"measurement": "IC50", "setting": "h-NK3", "result": 10000, "unit": "nM"}, {"measurement": "IC50", "setting": "h-NK1", "result": 32.4, "unit": "nM"}]}
{"compound": "O=C(c1ccoc1)N1CCCC(N2CCN(C3CCN(C(=O)c4cc(C(F)(F)F)cc(C(F)(F)F)c4)C(Cc4ccccc4)C3)CC2)CC1", "note": "(stereo not shown) [Compound 7]", "values": [{"measurement": "IC50", "setting": "h-NK3", "result": 1910, "unit": "nM"}, {"measurement": "IC50", "setting": "h-NK1", "result": 28.8, "unit": "nM"}]}
